Experimental data published in the NIST ThermoML archive (doi:10.1021/je0340755).

Assay: xn = mol fraction of the nth substance listed
Conditions: 101.3 kPa, Liquid; for viscosity: Capillary tube (Ostwald / Ubbelohde) method

CC(O)CCO (stereo not given) [1,3-butanediol] + O
Conditions | mass density, 318.15 K [kg/m3] | mass density, 328.15 K [kg/m3] | mass density, 338.15 K [kg/m3] | speed of sound, 318.15 K [m/s] | speed of sound, 328.15 K [m/s] | speed of sound, 338.15 K [m/s] | viscosity, 328.15 K [mPa·s] | viscosity, 338.15 K [mPa·s]
x2 = 0.045 | – | 980.01 | 972.67 | – | 1456.8 | 1438.1 | 17.94 | 11.63
x2 = 0.1445 | – | 982.02 | 974.54 | – | 1473 | 1452.7 | 15.5 | 9.961
x2 = 0.2499 | – | 984.33 | 976.7 | – | 1489.7 | 1468.1 | 12.68 | 8.015
x2 = 0.3526 | – | 986.62 | 978.84 | – | 1509.9 | 1486.2 | 9.939 | 6.116
x2 = 0.4519 | – | 988.88 | 980.99 | – | 1530.8 | 1506.1 | 7.454 | 4.415
x2 = 0.5035 | – | 990.12 | 982.18 | 1566.6 | 1542.3 | 1516.1 | 6.269 | 3.616
x2 = 0.5563 | 1001.18 | 991.47 | 983.48 | 1579.1 | 1554.1 | 1527.9 | 5.15 | 2.874
x2 = 0.6507 | 1003.55 | 993.99 | 985.94 | 1604.8 | 1579.6 | 1552 | 3.415 | 1.759
x2 = 0.7518 | 1005.28 | 996.11 | 988.14 | 1638.6 | 1612.2 | 1584.1 | 1.97 | 0.895
x2 = 0.8477 | 1004.06 | 995.8 | 988.28 | 1662.4 | 1638.8 | 1611.3 | 1.028 | 0.418
x2 = 0.9081 | 1000.51 | 993.31 | 986.44 | 1652.9 | 1635.3 | 1614.1 | 0.666 | 0.302
x2 = 0.9152 | 999.92 | 992.87 | 986.1 | 1649.3 | 1633 | 1612.4 | 0.636 | 0.299
x2 = 0.9253 | 999 | 992.19 | 985.58 | 1643 | 1628.7 | 1609.7 | 0.598 | 0.298
x2 = 0.9355 | 998 | 991.44 | 985 | 1635.1 | 1622.5 | 1606.3 | 0.565 | 0.301
x2 = 0.9521 | 996.21 | 990.11 | 983.95 | 1618.5 | 1610.6 | 1597.7 | 0.525 | 0.317
x2 = 0.9543 | 995.96 | 989.92 | 983.8 | 1616 | 1608.3 | 1596.6 | 0.521 | 0.32
x2 = 0.9597 | 995.33 | 989.45 | 983.44 | 1609.2 | 1603.1 | 1592.9 | 0.512 | 0.329
x2 = 0.9699 | 994.09 | 988.53 | 982.72 | 1594.8 | 1591.7 | 1585.4 | 0.5 | 0.348
x2 = 0.9804 | 992.76 | 987.55 | 981.96 | 1577.4 | 1578.7 | 1575.5 | 0.495 | 0.374
x2 = 0.9901 | 991.5 | 986.62 | 981.25 | 1558.9 | 1563.6 | 1565.5 | 0.496 | 0.403
x2 = 0.9924 | 991.2 | 986.41 | 981.09 | 1554.1 | 1559.6 | 1561.7 | 0.497 | 0.411
x2 = 0.9955 | 990.8 | 986.11 | 980.87 | 1547.5 | 1555 | 1558.4 | 0.499 | 0.422
